Results: patent US9101679B2, “Sterilization method and apparatus” (TS03 Inc., priority 2009, dated 2015)
“Also recorded” adds a separate entry of the source. Like-named read-outs stand apart in the source and are kept apart here.

How the values were obtained:
[1] = system: spores of G. stearothermophilus; conditions: cited from earlier work
[2] = system: spores of G. stearothermophilus; experiment: Estimate of spores inactivated by NO / NO2 alone; format: cell-based
Experimental: In this experiment, the amount of NO injected was 2 mg/L. Considering that all NO molecules were transformed in NO2, a D-value of 1.9 minutes for a concentration of 2 mg/L of NO2, only 2.5 log of spores would have been inactivated by the NO2. This less than the 6 log present on the inoculated devices. In reality, the conversion rate of NO in NO2 is probably not 100%, and the D-value is more than 1.9 minutes. Thus the number of spores inactivated by NO only is probably more around 1 log.

[3] = system: spores; conditions: 3.4 mL per pulse; half-cycle of Cycle 1; Teflon 1 mm x 80 cm
Experimental: In order to inject a high volume at once, a valve separated by Teflon tubing was used instead of the normally used microvalve (TSO3 #: AM-213-001). The tubing length was determined by the volume to be injected. Since the volume contained in the valve is significant, two sizes of valves were used. The first type (TSO3 #: CM-900-157) with an orifice of 0.062″, was used for a volume up to 1.5 mL. The second Neptune type, with an orifice of 0.156″, (TSO3 #: CM-900-156), was used for a volume up to 3.5 mL. The larger valve size also helps to push the large liquid volume into the chamber. For the 35 μL volume, a Burket 7616 micropump (TSO3 #: CM-113-001) was used. For the 23 μL volume, a larger, specially-made block was used.
Two cycles were used for this experiment. To test the sterility, Cycle 1 (half-cycle) was used, where the injection step of the conditioning phase was modified with a variation in volume and pulse for each attempt, as previously described. As for the condensation effect, Cycle 3, consisting of four phases, was utilized. This cycle was chosen due to the fact that a greater quantity of hydrogen peroxide was injected for the cycle, making it the worst case scenario. […] After exposure to a half-cycle of Cycle 1, the sterility of each lumen was determined according to MCB-09-A04 rev. 7 by quantitative recovery using the ultrasound technique followed by filtration. […]

[4] = system: G. stearothermophilus ATCC 7953 spores; experiment: Sterile efficacy on inoculated lumens, half-cycle of each TSO3 cycle; format: cell-based; conditions: for sterility result in words, gas replacing ozone after hydrogen peroxide injection: all three cycles, gas injected after hydrogen peroxide
Description: The test evaluated the sterile efficacy on inoculated devices. Inoculated wires were inserted in tubing and afterwards in pouches. The pouches were also placed at the top of the loading carriage in the sterilization chamber.
The same loads were used for the three series of tests performed: ozone, oxygen and nitric oxide. The length, diameter, material and type of tubing were different for each cycle and are described in Table 3. The inoculated lumens were placed in a special load representing an average load for the three cycles.
The lumens used to evaluate the sterile efficacy were inoculated according to protocol MCB-09-A07 rev 9. The wire method was used. The wires were inoculated with 10 μL of a G. stearothermophilus ATCC 7953 spores suspension of 1.0×10^6 to 2.5×10^6 UFC/10 μL. The inoculated wires were left to dry overnight at normal room conditions.
Test loads were exposed to a half-cycle of each cycle. For the experiment with oxygen and nitrogen oxide, ozone was replaced by the gas to be tested. A burette was also plugged on the valve system in order to precisely determine the H2O2 injected volume.
The baseline of sterile efficacy on the inoculated lumens used in each cycle was established using only hydrogen peroxide. Cycles using hydrogen peroxide and ozone were performed to compare the efficacy of oxygen and nitrogen oxide to ozone.
The oxygen was injected in the chamber using the same system as that used for ozone. The ozone generator was turned off.
The NO was injected however directly in the chamber from an independent NO cylinder (Praxair). […] By doing so, the gas was forced into the chamber.
All tests were performed outside in order to limit possible dangers from accidental leaks. A NO detector was used. A long tube was plugged into the catalyst converter unit, to allow the NO to be eliminated far from the set-up. A calculation was performed (see below) to determine the number of valve injections necessary to obtain a concentration of 2 mg/L. • Valve volume: 3.3 mL (Volume calculated in R-1937) • NO Density NTP: 1.25 g/L • Sterilisation chamber volume: 125 L • Finale concentration desired: 2 mg/L • NO Pressure: 3 psig • Corrected volume: 3300×((14.7+3)/14.7)=3973.2 μL • Mass to be injected: 0.002 g/L×125 L=0.25 gno • Masse injected by each injection: 1.25 g/L×0.003974 L=4.9665×10^−3 g/injection • Number of injections required: 0.25 gno/4.9665×10^−3 g/injection=50 injections

[5] = system: spores; experiment: Sterilization by evaporated hydrogen peroxide solution alone or followed by ozone; format: cell-based
Description: Indeed the evaporated hydrogen peroxide solution injected into the chamber is not sufficient to achieve sterilization, although a 4 log reduction in spores has been observed. […] Such complete sterilization could not be achieved using only the injection of evaporated hydrogen peroxide solution, independent of the amount of hydrogen peroxide solution used and the concentration of the solution. Moreover, high concentrations of hydrogen peroxide reduce compatibility with some instruments. […] In fact the dwelling time after hydrogen peroxide injection appears to have no effect on sterilization efficacy.

[O]N=O [NO2, nitrogen dioxide]
D-value ([1]; 3 mg/L): approximately 1.9 minutes
D-value ([1]; 5.12 mg/L NO2): 0.3 min
spores inactivated by the NO2 ([2]; assuming all NO (2 mg/L) transformed into NO2 and a D-value of 1.9 minutes): 2.5 log

OO [H2O2, hydrogen peroxide]
spore count [3]: zero
Sterile lumens Cycle 1 ([4]; half-cycle of Cycle 1, Teflon lumen 1 mm x 80 cm, O3 or O2 2 mg/L, NO 2 mg/L): 50%
Sterile lumens Cycle 2 ([4]; half-cycle of Cycle 2, stainless steel lumen 1 mm x 50 cm, O3 or O2 10 mg/L, NO 2 mg/L): 12.5%
Sterile lumens Cycle 3 ([4]; half-cycle of Cycle 3, Teflon lumen 1 mm x 110 cm, O3 or O2 3 mg/L, NO 2 mg/L): 16%
reduction in spores ([5]; evaporated hydrogen peroxide solution only, no ozone): 4 log

O=[O+][O-] [ozone]
sterilization result in words ([5]; 1-10 mg of ozone per liter of sterilization atmosphere added after evaporated hydrogen peroxide, SAL 10^-6): full and complete sterilization

Nitrogen monoxide
sterility result in words, gas replacing ozone after hydrogen peroxide injection [4]: complete sterility in all three cycles
spores inactivated by NO only ([2]; 2 mg/L NO, conversion to NO2 probably not 100%): around 1 log

O=O [oxygen]
sterility result in words, gas replacing ozone after hydrogen peroxide injection [4]: ineffective to replace ozone; also recorded: Sterility was not achieved in two of the three cycles
